According to patent US20140343000A1 (priority 2011, published 2014):

Each molecule was assayed on recombinant NL4-3 virus (Renilla luciferase in nef, Gag P373S; NLRluc) in MT-2 cells (assay: whole plant or invertebrate). Details: Renilla, NL43, luciferase activity in cells infected for 4-5 days with NLRluc recombinants, serial dilutions of inhibitor; class symbols (key in Table 1); read-out: EC50.
Type: cell-based, HIV
Outline: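 Cells grown in serum-supplemented RPMI were exposed to graded inhibitor concentrations during a 4-5 day infection. Antiviral effect was then derived from luminescence after adding a combined lysis and dual-luciferase substrate mixture to each well.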
In the case of `C=C(C)[C@@H]1CC[C@]2(NC(=O)Cn3cc(-c4ccccc4)cn3)CC[C@]3(C)[C@H](CC[C@@H]4[C@@]5(C)CC=C(c6ccc(C(=O)O)cc6)C(C)(C)[C@@H]5CC[C@]43C)[C@@H]12` [Example 87, 4-((1R,3aS,5aR,5bR,7aR,11aS,11bR,13aR,13bR)-5a,5b,8,8,11a-pentamethyl-3a-(2-(4-phenyl-1H-pyrazol-1-yl)acetamido)-1-(prop-1-en-2-yl)-2,3,3a,4,5,5a,5b,6,7,7a,8,11,11a,11b,12,13,13a,13b-octadecahydro-1H-cyclopenta[a]chrysen-9-yl)benzoic acid], the EC50 is reported as < 0.1 µM.
`C=C(C)[C@@H]1CC[C@]2(NC(=O)CN3CCN(CC)CC3)CC[C@]3(C)[C@H](CC[C@@H]4[C@@]5(C)CC=C(c6ccc(C(=O)O)cc6)C(C)(C)[C@@H]5CC[C@]43C)[C@@H]12` [Example 85, 4-((1R,3aS,5aR,5bR,7aR,11aS,11bR,13aR,13bR)-3a-(2-(4-ethylpiperazin-1-yl)acetamido)-5a,5b,8,8,11a-pentamethyl-1-(prop-1-en-2-yl)-2,3,3a,4,5,5a,5b,6,7,7a,8,11,11a,11b,12,13,13a,13b-octadecahydro-1H-cyclopenta[a]chrysen-9-yl)benzoic acid] was tested, and the EC50 was < 0.1 µM.
With `C=C(C)[C@@H]1CC[C@]2(NC(=O)Cc3cnccn3)CC[C@]3(C)[C@H](CC[C@@H]4[C@@]5(C)CC=C(c6ccc(C(=O)O)cc6)C(C)(C)[C@@H]5CC[C@]43C)[C@@H]12` [Example 102, 4-((1R,3aS,5aR,5bR,7aR,11aS,11bR,13aR,13bR)-5a,5b,8,8,11a-pentamethyl-1-(prop-1-en-2-yl)-3a-(2-(pyrazin-2-yl)acetamido)-2,3,3a,4,5,5a,5b,6,7,7a,8,11,11a,11b,12,13,13a,13b-octadecahydro-1H-cyclopenta[a]chrysen-9-yl)benzoic acid] the EC50 was < 0.1 µM.
`C=C(C)[C@@H]1CC[C@]2(NCCN3CCN(S(C)(=O)=O)CC3)CC[C@]3(C)[C@H](CC[C@@H]4[C@@]5(C)CC=C(c6ccc(C(=O)O)cc6)C(C)(C)[C@@H]5CC[C@]43C)[C@@H]12` [Example B15, 4-((1R,3aS,5aR,5bR,7aR,11aS,11bR,13aR,13bR)-5a,5b,8,8,11a-pentamethyl-3a-((2-(4-(methylsulfonyl)piperazin-1-yl)ethyl)amino)-1-(prop-1-en-2-yl)-2,3,3a,4,5,5a,5b,6,7,7a,8,11,11a,11b,12,13,13a,13b-octadecahydro-1H-cyclopenta[a]chrysen-9-yl)benzoic acid] was tested, and the EC50 was < 0.1 µM.
`C=C(C)[C@@H]1CC[C@]2(NC(=O)CN3CCC(F)(F)C3)CC[C@]3(C)[C@H](CC[C@@H]4[C@@]5(C)CC=C(c6ccc(C(=O)O)cc6)C(C)(C)[C@@H]5CC[C@]43C)[C@@H]12` [Example 119, 4-((1R,3aS,5aR,5bR,7aR,11aS,11bR,13aR,13bR)-3a-(2-(3,3-difluoropyrrolidin-1-yl)acetamido)-5a,5b,8,8,11a-pentamethyl-1-(prop-1-en-2-yl)-2,3,3a,4,5,5a,5b,6,7,7a,8,11,11a,11b,12,13,13a,13b-octadecahydro-1H-cyclopenta[a]chrysen-9-yl)benzoic acid] was tested, and the EC50 was < 0.1 µM.
In the case of `C=C(C)[C@@H]1CC[C@]2(NC(=O)N3CCCNCC3)CC[C@]3(C)[C@H](CC[C@@H]4[C@@]5(C)CC=C(c6ccc(C(=O)O)cc6)C(C)(C)[C@@H]5CC[C@]43C)[C@@H]12` [Example 55, 4-((1R,3aS,5aR,5bR,7aR,11aS,11bR,13aR,13bR)-3a-(1,4-diazepane-1-carboxamido)-5a,5b,8,8,11a-pentamethyl-1-(prop-1-en-2-yl)-2,3,3a,4,5,5a,5b,6,7,7a,8,11,11a,11b,12,13,13a,13b-octadecahydro-1H-cyclopenta[a]chrysen-9-yl)benzoic acid], the EC50 is reported as < 0.1 µM.
In the case of `C=C(C)[C@@H]1CC[C@]2(NC(=O)[C@@H]3CC(F)(F)CN3C(=O)OC(C)(C)C)CC[C@]3(C)[C@H](CC[C@@H]4[C@@]5(C)CC=C(c6ccc(C(=O)O)cc6)C(C)(C)[C@@H]5CC[C@]43C)[C@@H]12` [Example 114, 4-((1R,3aS,5aR,5bR,7aR,11aS,11bR,13aR,13bR)-3a-((S)-1-(tert-butoxycarbonyl)-4,4-difluoropyrrolidine-2-carboxamido)-5a,5b,8,8,11a-pentamethyl-1-(prop-1-en-2-yl)-2,3,3a,4,5,5a,5b,6,7,7a,8,11,11a,11b,12,13,13a,13b-octadecahydro-1H-cyclopenta[a]chrysen-9-yl)benzoic acid], the EC50 is reported as < 0.1 µM.
With `C=C(C)[C@@H]1CC[C@]2(NC(=O)NC(C)(C)CN3CCOCC3)CC[C@]3(C)[C@H](CC[C@@H]4[C@@]5(C)CC=C(c6ccc(C(=O)O)cc6)C(C)(C)[C@@H]5CC[C@]43C)[C@@H]12` [Example 5, 4-((1R,3aS,5aR,5bR,7aR,11aS,11bR,13aR,13bR)-5a,5b,8,8,11a-pentamethyl-3a-(3-(2-methyl-1-morpholinopropan-2-yl)ureido)-1-(prop-1-en-2-yl)-2,3,3a,4,5,5a,5b,6,7,7a,8,11,11a,11b,12,13,13a,13b-octadecahydro-1H-cyclopenta[a]chrysen-9-yl)benzoic acid] the EC50 was < 0.1 µM.
For `C=C(C)[C@@H]1CC[C@]2(NCCN3CCN(S(=O)(=O)C(C)C)CC3)CC[C@]3(C)[C@H](CC[C@@H]4[C@@]5(C)CC=C(c6ccc(C(=O)O)cc6)C(C)(C)[C@@H]5CC[C@]43C)[C@@H]12` [Example B26, 4-((1R,3aS,5aR,5bR,7aR,11aS,11bR,13aR,13bR)-3a-((2-(4-(isopropylsulfonyl)piperazin-1-yl)ethyl)amino)-5a,5b,8,8,11a-pentamethyl-1-(prop-1-en-2-yl)-2,3,3a,4,5,5a,5b,6,7,7a,8,11,11a,11b,12,13,13a,13b-octadecahydro-1H-cyclopenta[a]chrysen-9-yl)benzoic acid], the EC50 was < 0.1 µM.
For `C=C(C)[C@@H]1CC[C@]2(N)CC[C@]3(C)[C@H](CC[C@@H]4[C@@]5(C)CC=C(c6ccc(C(=O)O)s6)C(C)(C)[C@@H]5CC[C@]43C)[C@@H]12` [Example B1, 5-((1R,3aS,5aR,5bR,7aR,11aS,11bR,13aR,13bR)-3a-amino-5a,5b,8,8,11a-pentamethyl-1-(prop-1-en-2-yl)-2,3,3a,4,5,5a,5b,6,7,7a,8,11,11a,11b,12,13,13a,13b-octadecahydro-1H-cyclopenta[a]chrysen-9-yl)thiophene-2-carboxylic acid], the EC50 was < 0.1 µM.
In the case of `C=C(C)[C@@H]1CC[C@]2(NCCNc3nccn3C)CC[C@]3(C)[C@H](CC[C@@H]4[C@@]5(C)CC=C(c6ccc(C(=O)O)cc6)C(C)(C)[C@@H]5CC[C@]43C)[C@@H]12` [Example 191, 4-((1R,3aS,5aR,5bR,7aR,11aS,11bR,13aR,13bR)-5a,5b,8,8,11a-pentamethyl-3a-(2-(1-methyl-1H-imidazol-2-ylamino)ethylamino)-1-(prop-1-en-2-yl)-2,3,3a,4,5,5a,5b,6,7,7a,8,11,11a,11b,12,13,13a,13b-octadecahydro-1H-cyclopenta[a]chrysen-9-yl)benzoic acid], the EC50 is reported as < 0.1 µM.
With `C=C(C)[C@@H]1CC[C@]2(NCCNS(=O)(=O)CCC)CC[C@]3(C)[C@H](CC[C@@H]4[C@@]5(C)CC=C(c6ccc(C(=O)O)cc6)C(C)(C)[C@@H]5CC[C@]43C)[C@@H]12` [Example B34, 4-((1R,3aS,5aR,5bR,7aR,11aS,11bR,13aR,13bR)-5a,5b,8,8,11a-pentamethyl-1-(prop-1-en-2-yl)-3a-((2-(propylsulfonamido)ethyl)amino)-2,3,3a,4,5,5a,5b,6,7,7a,8,11,11a,11b,12,13,13a,13b-octadecahydro-1H-cyclopenta[a]chrysen-9-yl)benzoic acid] the EC50 was < 0.1 µM.
For `C=C(C)[C@@H]1CC[C@]2(NCCNC(=O)OC(C)(C)C)CC[C@]3(C)[C@H](CC[C@@H]4[C@@]5(C)CC=C(c6ccc(C(=O)O)cc6)C(C)(C)[C@@H]5CC[C@]43C)[C@@H]12` [Example 138, 4-((1R,3aS,5aR,5bR,7aR,11aS,11bR,13aR,13bR)-3a-(2-(tert-butoxycarbonylamino)ethylamino)-5a,5b,8,8,11a-pentamethyl-1-(prop-1-en-2-yl)-2,3,3a,4,5,5a,5b,6,7,7a,8,11,11a,11b,12,13,13a,13b-octadecahydro-1H-cyclopenta[a]chrysen-9-yl)benzoic acid], the EC50 was < 0.1 µM.
`C=C(C)[C@@H]1CC[C@]2(NCCN3CCC(F)(F)CC3)CC[C@]3(C)[C@H](CC[C@@H]4[C@@]5(C)CC=C(c6ccc(C(=O)O)cc6)C(C)(C)[C@@H]5CC[C@]43C)[C@@H]12` [Example 172] was tested, and the EC50 was < 0.1 µM.

Same assay, conditions: Renilla, NL43, luciferase activity in cells infected for 4-5 days with NLRluc recombinants, serial dilutions of inhibitor; numeric values; read-out: EC50
For `C=C(C)[C@@H]1CC[C@]2(N(CC(=O)CC)c3nc(CC)cs3)CC[C@]3(C)[C@H](CC[C@@H]4[C@@]5(C)CC=C(c6ccc(C(=O)O)cc6)C(C)(C)[C@@H]5CC[C@]43C)[C@@H]12` [Example 184A, 4-((1R,3aS,5aR,5bR,7aR,11aS,11bR,13aR,13bR)-3a-((4-ethylthiazol-2-yl)(2-oxobutyl)amino)-5a,5b,8,8,11a-pentamethyl-1-(prop-1-en-2-yl)-2,3,3a,4,5,5a,5b,6,7,7a,8,11,11a,11b,12,13,13a,13b-octadecahydro-1H-cyclopenta[a]chrysen-9-yl)benzoic acid], the EC50 was 0.39 µM.
Work on `C=C(C)[C@@H]1CC[C@]2(NC(=O)N[C@@H](CO)C(=O)O)CC[C@]3(C)[C@H](CC[C@@H]4[C@@]5(C)CC=C(c6ccc(C(=O)O)cc6)C(C)(C)[C@@H]5CC[C@]43C)[C@@H]12` [Example 18, 4-((1R,3aS,5aR,5bR,7aR,11aS,11bR,13aR,13bR)-3a-(3-((S)-1-carboxy-2-hydroxyethyl)ureido)-5a,5b,8,8,11a-pentamethyl-1-(prop-1-en-2-yl)-2,3,3a,4,5,5a,5b,6,7,7a,8,11,11a,11b,12,13,13a,13b-octadecahydro-1H-cyclopenta[a]chrysen-9-yl)benzoic acid] yielded an EC50 of 0.25 µM.
